# Paper PMC11096521 (Frontiers in Pharmacology, 2024)
# Legend:
# [1] = molecular target: T1, BCRP (Homo sapiens, UniProt Q9UNQ0)
# T1 construct: gene ABCG2
# T1 sequence (Q9UNQ0 1-655): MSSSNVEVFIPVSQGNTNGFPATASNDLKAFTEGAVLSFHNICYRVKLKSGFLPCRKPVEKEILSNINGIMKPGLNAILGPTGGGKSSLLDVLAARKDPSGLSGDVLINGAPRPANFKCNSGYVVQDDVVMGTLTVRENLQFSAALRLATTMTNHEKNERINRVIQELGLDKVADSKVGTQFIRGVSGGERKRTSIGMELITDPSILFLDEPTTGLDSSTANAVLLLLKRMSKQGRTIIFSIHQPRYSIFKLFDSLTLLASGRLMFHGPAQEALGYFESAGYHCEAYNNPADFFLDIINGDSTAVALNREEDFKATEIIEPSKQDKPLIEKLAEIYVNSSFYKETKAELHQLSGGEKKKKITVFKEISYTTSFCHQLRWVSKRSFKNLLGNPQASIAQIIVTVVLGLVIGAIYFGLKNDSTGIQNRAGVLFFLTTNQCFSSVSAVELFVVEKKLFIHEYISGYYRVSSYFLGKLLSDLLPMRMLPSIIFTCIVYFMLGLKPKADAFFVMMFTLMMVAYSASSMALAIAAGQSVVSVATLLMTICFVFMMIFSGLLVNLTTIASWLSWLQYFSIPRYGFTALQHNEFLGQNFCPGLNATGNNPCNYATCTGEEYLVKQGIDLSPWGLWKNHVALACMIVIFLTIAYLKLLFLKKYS
# [2] = molecular target: T2, P-gp (Homo sapiens, UniProt P08183); experiment: inhibition of ceralasertib-stimulated P-gp ATPase in crude membranes
# T2 construct: gene ABCB1; crude membrane protein isolated from High Five insect cells
# T2 sequence (P08183 whole entry): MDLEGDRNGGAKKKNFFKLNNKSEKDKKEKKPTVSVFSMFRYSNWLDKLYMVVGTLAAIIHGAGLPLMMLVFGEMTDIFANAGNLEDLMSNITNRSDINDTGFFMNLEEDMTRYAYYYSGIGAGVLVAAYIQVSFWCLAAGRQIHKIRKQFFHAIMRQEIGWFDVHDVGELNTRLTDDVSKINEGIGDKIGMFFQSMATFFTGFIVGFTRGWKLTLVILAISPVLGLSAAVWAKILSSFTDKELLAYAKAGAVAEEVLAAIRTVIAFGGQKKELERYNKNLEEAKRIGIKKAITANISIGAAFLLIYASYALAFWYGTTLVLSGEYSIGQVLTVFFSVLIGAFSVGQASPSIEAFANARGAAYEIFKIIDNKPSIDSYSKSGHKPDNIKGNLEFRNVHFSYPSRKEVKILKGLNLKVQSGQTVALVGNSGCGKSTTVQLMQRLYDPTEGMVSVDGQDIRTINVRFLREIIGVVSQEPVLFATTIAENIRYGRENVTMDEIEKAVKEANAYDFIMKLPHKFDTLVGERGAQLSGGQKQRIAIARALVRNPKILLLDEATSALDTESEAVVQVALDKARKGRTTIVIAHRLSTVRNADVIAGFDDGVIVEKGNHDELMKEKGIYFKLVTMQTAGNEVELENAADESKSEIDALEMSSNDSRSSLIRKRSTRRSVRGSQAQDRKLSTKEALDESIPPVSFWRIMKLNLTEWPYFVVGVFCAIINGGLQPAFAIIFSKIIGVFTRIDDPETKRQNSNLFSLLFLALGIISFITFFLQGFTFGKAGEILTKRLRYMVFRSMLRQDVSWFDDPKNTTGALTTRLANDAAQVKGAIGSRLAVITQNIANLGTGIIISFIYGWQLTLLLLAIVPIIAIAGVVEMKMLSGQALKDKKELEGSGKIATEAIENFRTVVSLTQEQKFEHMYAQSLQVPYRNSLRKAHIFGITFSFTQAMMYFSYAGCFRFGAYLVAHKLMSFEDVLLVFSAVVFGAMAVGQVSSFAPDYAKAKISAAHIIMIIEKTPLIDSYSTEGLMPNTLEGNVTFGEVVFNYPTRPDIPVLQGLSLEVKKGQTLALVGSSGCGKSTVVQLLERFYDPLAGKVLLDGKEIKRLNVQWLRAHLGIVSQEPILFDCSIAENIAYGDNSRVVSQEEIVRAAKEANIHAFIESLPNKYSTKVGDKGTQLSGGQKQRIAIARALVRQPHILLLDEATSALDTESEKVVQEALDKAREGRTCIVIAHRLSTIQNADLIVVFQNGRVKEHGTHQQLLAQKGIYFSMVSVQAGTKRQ
Compound,"radiolabelled efflux/accumulation in NCI-H460/TPT10 cells, reversed by Ko143 [1]",inhibition of ceralasertib-stimulated P-gp ATPase in crude membranes [2]
O=C1c2c(O)ccc(O)c2C(=O)c2c(NCCNCCO)ccc(NCCNCCO)c21 [mitoxantrone],"BCRP-overexpressing NCI-H460/TPT10 cells have decreased intracellular level of [^3H]-mitoxantrone, which can be reversed by Ko143",
CN1CCC(COc2cnc(-c3cccc(Cn4nc(-c5cccc(C#N)c5)ccc4=O)c3)nc2)CC1 [tepotinib],,"Tepotinib, a P-gp ATPase inhibitor, was able to significantly block the activation caused by ceralasertib."
